We go through one molecule from patent US20230085307A1, “PYRIDAZINONE COMPOUND AND HERBICIDE” (NISSAN CHEMICAL CORPORATION, priority 2019, published 2023).

Experiment [1] deals with barnyard grass. Kind of experiment: Test Example 3: herbicidal effect by foliage application, Wagner pot (Table 18, symbol H). Type of experiment: in vivo, barnyard grass (Echinochloa crus-galli). The following applies: 320 g/ha. The essentials: (§1)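 Plants were sown in alluvial soil held under 0.1–0.5 cm standing water and grown 14 days in a greenhouse at 25–30 °C. An emulsifiable formulation, water-diluted to the set dose, was then sprayed onto the foliage, and effects were scored three weeks later using previously defined criteria.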

The next experiment deals with Chinese sprangletop. The experiment can be described thus: Test Example 3: herbicidal effect by foliage application, Wagner pot (Table 18, symbol D). Type of experiment: in vivo, chinese sprangletop (Leptochloa chinensis). To be noted: 320 g/ha. The essentials: as §1
The test system of a further experiment is rice flat sedge. The experiment can be described thus: Test Example 3: herbicidal effect by foliage application, Wagner pot (Table 18, symbol E). Type of experiment: in vivo, rice flat sedge (Cyperus iria). The following applies: 320 g/ha. The essentials: as §1
For experiment [2], the system named is wild oat. The experiment can be described thus: Test Example 4: herbicidal effect by soil treatment (Table 19, symbol I). Type of experiment: in vivo, wild oat (Avena fatua). To be noted: amount of applied herbicide 320 g/ha. The text has this: (§2) [Test Example 4] Herbicidal Effect Test by Soil Treatment
(§3) Sterilized diluvial soil was placed in a plastic box having a length of 21 cm, a width of 13 cm, and a depth of 7 cm. The seeds of each of southern crabgrass, green foxtail, barnyard grass, wild oat, blackgrass, Italian ryegrass, windgrass, velvetleaf, redroot pigweed, lambsquarters, chickweed, false cleavers, persian speedwell, corn, soybean, rice, wheat, beet, and rapeseed were sowed in a spot-like manner and covered with the soil having a thickness of about 1.5 cm. Subsequently, the emulsion agent of the compound of the present invention prepared according to Formulation Example 2 was diluted with water so as to achieve a predetermined herbicide amount, and the diluted emulsion agent was uniformly applied to the surface of the soil with a small-sized spray. The plastic box was placed in a greenhouse at 25° C. to 30° C. for growth of the plants. Three weeks after the herbicide application, the effect of the herbicide on each plant was evaluated according to the criteria of Test Example 1.

Experiment [3] relates to Italian ryegrass. Kind of experiment: Test Example 4: herbicidal effect by soil treatment (Table 19, symbol K). Type of experiment: in vivo, Italian ryegrass (Lolium multiflorum). The following applies: amount of applied herbicide 320 g/ha.
Description: as §2, §3

In experiment [4] the test system is redroot pigweed. The experiment can be described thus: Test Example 4: herbicidal effect by soil treatment (Table 19, symbol N). The following applies: amount of applied herbicide 320 g/ha. Type of experiment: in vivo, redroot pigweed (Amaranthus retroflexus).
Description: as §2, §3

The subject of the next experiment is southern crabgrass. Kind of experiment: Test Example 5: herbicidal effect by foliage application, plastic box (Table 20, symbol F). To be noted: foliage application, 320 g/ha, three weeks after application. Type of experiment: in vivo, southern crabgrass (Digitaria ciliaris). The essentials: (§4)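 Foliar spray test: emulsion formulation diluted in water to a set application rate, sprayed onto 14-day-old plants raised in diluvial soil at 25° C to 30° C under glass. Both herbicidal effect and crop effect rated visually three weeks later.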

The subject of another experiment is green foxtail. Kind of experiment: Test Example 5: herbicidal effect by foliage application, plastic box (Table 20, symbol G). Format: in vivo, green foxtail (Setaria viridis). The following applies: foliage application, 320 g/ha, three weeks after application. In a few lines:
as §4

Experiment [5] relates to barnyard grass. Kind of experiment: Test Example 5: herbicidal effect by foliage application, plastic box (Table 20, symbol H). Type of experiment: in vivo, barnyard grass (Echinochloa crus-galli). The following applies: foliage application, 320 g/ha, three weeks after application. In a few lines:
as §4

Experiment [6] concerns wild oat. The experiment can be described thus: Test Example 5: herbicidal effect by foliage application, plastic box (Table 20, symbol I). Format: in vivo, wild oat (Avena fatua). The following applies: foliage application, 320 g/ha, three weeks after application. The essentials: as §4
The next experiment relates to blackgrass. Kind of experiment: Test Example 5: herbicidal effect by foliage application, plastic box (Table 20, symbol J). Format: in vivo, blackgrass (Alopecurus myosuroides). The following applies: foliage application, 320 g/ha, three weeks after application. The essentials:
as §4

The test system of experiment [7] is Italian ryegrass. Kind of experiment: Test Example 5: herbicidal effect by foliage application, plastic box (Table 20, symbol K). Type of experiment: in vivo, Italian ryegrass (Lolium multiflorum). The following applies: foliage application, 320 g/ha, three weeks after application. In a few lines:
as §4

The subject of another experiment is windgrass. Kind of experiment: Test Example 5: herbicidal effect by foliage application, plastic box (Table 20, symbol L). Type of experiment: in vivo, windgrass (Apera spica-venti). To be noted: foliage application, 320 g/ha, three weeks after application. In a few lines: as §4
A further experiment has as its system velvetleaf. The experiment can be described thus: Test Example 5: herbicidal effect by foliage application, plastic box (Table 20, symbol M). Format: in vivo, velvetleaf (Abutilon theophrasti). The following applies: foliage application, 320 g/ha, three weeks after application. In a few lines:
as §4

The subject of experiment [8] is redroot pigweed. Kind of experiment: Test Example 5: herbicidal effect by foliage application, plastic box (Table 20, symbol N). The following applies: foliage application, 320 g/ha, three weeks after application. Format: in vivo, redroot pigweed (Amaranthus retroflexus). In a few lines:
as §4

A further experiment relates to lambsquarters. The experiment can be described thus: Test Example 5: herbicidal effect by foliage application, plastic box (Table 20, symbol O). Format: in vivo, lambsquarters (Chenopodium album). The following applies: foliage application, 320 g/ha, three weeks after application. In a few lines: as §4
The next experiment has as its system chickweed. Kind of experiment: Test Example 5: herbicidal effect by foliage application, plastic box (Table 20, symbol P). Format: in vivo, common chickweed (Stellaria media). The following applies: foliage application, 320 g/ha, three weeks after application. In a few lines: as §4
In a further experiment the test system is persian speedwell. The experiment can be described thus: Test Example 5: herbicidal effect by foliage application, plastic box (Table 20, symbol R). Format: in vivo, Persian speedwell (Veronica persica). The following applies: foliage application, 320 g/ha, three weeks after application. The essentials: as §4

With `Cc1nn(C)c(=O)c(-c2c(-c3ccc(OC(F)(F)F)cc3)sc3ccccc23)c1O` [1-031], the “herbicidal effect on H (barnyard grass), rating 0-5” value with barnyard grass [1] is 4 (Herbicidal rate of 70% or more and less than 90%). The “herbicidal effect on D (Chinese sprangletop), rating 0-5” value with Chinese sprangletop is 0 (Herbicidal rate of 5% or less (almost no effect)). The “herbicidal effect on E (rice flat sedge), rating 0-5” value in the experiment with rice flat sedge was 5 (Herbicidal rate of 90% or more (almost completely withered)). For the same molecule, the “herbicidal effect rating, I: wild oat” value with wild oat [2] is 0 (Herbicidal rate of 5% or less (almost no effect)). Besides, the “herbicidal effect rating, K: Italian ryegrass” value with Italian ryegrass [3] was 3 (Herbicidal rate of 40% or more and less than 70%). Besides, the “herbicidal effect rating, N: redroot pigweed” value in the experiment on redroot pigweed [4] was 4 (Herbicidal rate of 70% or more and less than 90%). In addition, the “herbicidal effect grade, F: southern crabgrass” value with southern crabgrass was 0 (Herbicidal rate of 5% or less (almost no effect)). Also, in the experiment with green foxtail, the “herbicidal effect grade, G: green foxtail” value is 4 (Herbicidal rate of 70% or more and less than 90%). Further, the “herbicidal effect grade, H: barnyard grass” value in the experiment on barnyard grass [5] was 3 (Herbicidal rate of 40% or more and less than 70%). In addition, the “herbicidal effect grade, I: wild oat” value in the experiment with wild oat [6] is reported as 0 (Herbicidal rate of 5% or less (almost no effect)). Moreover, in the experiment on blackgrass, the “herbicidal effect grade, J: blackgrass” value is 3 (Herbicidal rate of 40% or more and less than 70%). For the same molecule, the “herbicidal effect grade, K: Italian ryegrass” value with Italian ryegrass [7] was 5 (Herbicidal rate of 90% or more (almost completely withered)). Further, the “herbicidal effect grade, L: windgrass” value with windgrass is given as 0 (Herbicidal rate of 5% or less (almost no effect)). The “herbicidal effect grade, M: velvetleaf” value with velvetleaf is on record as 5 (Herbicidal rate of 90% or more (almost completely withered)). Moreover, the “herbicidal effect grade, N: redroot pigweed” value in the experiment on redroot pigweed [8] is 5 (Herbicidal rate of 90% or more (almost completely withered)). In the experiment with lambsquarters, the “herbicidal effect grade, O: lambsquarters” value is 5 (Herbicidal rate of 90% or more (almost completely withered)). Besides, in the experiment with chickweed, the “herbicidal effect grade, P: chickweed” value was 5 (Herbicidal rate of 90% or more (almost completely withered)). For the same molecule, the “herbicidal effect grade, R: persian speedwell” value with persian speedwell is given as 5 (Herbicidal rate of 90% or more (almost completely withered)).
